Two compounds from publication PMC10064330, “Reversible Dual-Covalent Molecular Locking of the 14-3-3/ERRγ Protein–Protein Interaction as a Molecular Glue Drug Discovery Approach” (Journal of the American Chemical Society, 2023) can be followed below.

This assay concerns the target T1, 14-3-3γ/ERRγ complex (Homo sapiens, UniProt P61981+P62508).
T1 construct: made in house; host or cells: E. coli NiCo21 (DE3)
Description: Intact mass spectrometry (QTOF-MS) crosslinking of 14-3-3γ and ERRγ. To be noted: 14-3-3γ 5 μM; for consumption of apo-14-3-3γ into crosslinked ternary complex: ERRγ 25 μM, compound 50 μM, NaCNBH3 reduction, 4 h. In kind it is biochemical. The protocol:
To further confirm the covalent crosslinking in solution, we performed intact mass spectrometry (MS) on the 14-3-3γ/ERRγ/5 and the 14-3-3γ/ERRγ/10 protein complexes. To ensure detection of the acid-labile imine-bonded complexes, the covalent imine bond was reduced in situ to the corresponding secondary amine using sodium cyanoborohydride. Samples were incrementally taken over 4 h and analyzed with high-resolution MS to determine crosslinking of the 14-3-3γ/ERRγ complex (Figure 2f–h and Figures S8 and S9). Intact MS analysis confirmed time-dependent crosslinking of the ternary complex (14-3-3γ/ERRγ/lock). […] A similar result was also observed for 10 (calculated mass: 33,080.4 Da) (Figure S11a–c).
Figure S8a. QTOF-MS analysis of 14-3-3/ERRg/5 ternary complex formation. LC-MS analysis of time-dependent crosslinking experiment of 14-3-3γ (5 µM) and ERRγ (25 µM) phosphopeptide by compound 5 (50 µM). Controls of just apo 14-3-3γ protein and protein incubated with compound 5 without ERRγ peptide are added. (Left) Chromatograms obtained for each sample after x amount of incubation. […] Calculated mass 14 -3-3γ […]
Figure S9. […] Based on the determined peak intensity of apo 14-3-3γ (peak A) and 14-3-3γ in complex with ERRg and staple 5 (peak B), the percentage of ternary complex is determined for each time point. […]
Different Scanning Fluorimetry (DSF) assays were performed using 40 µL samples containing 5 µM 14-3-3γ, 50 µM ERRγ pS179 9-mer peptide, 200 µM compound (or 1% DMSO) and 5x ProteoOrange (Lumiprobe, 5000x stock in DMSO) in 10 mM Hepes, 150 mM NaCl, 50 µM TCEP (pH 8.0). […] Fluorescence intensity was determined using excitation 470/40 nm and emission 570/20 nm filters. Based on these melting curves, the negative derivative melting curve is obtained from which the melting temperature Tm was determined. ΔTm values represent the differences in melting temperature relative to the DMSO control. All described melting temperatures are based on three independent experiments from which the average and standard deviations were determined using excel. […]

T1 sequence (P61981 whole entry, other chains not shown): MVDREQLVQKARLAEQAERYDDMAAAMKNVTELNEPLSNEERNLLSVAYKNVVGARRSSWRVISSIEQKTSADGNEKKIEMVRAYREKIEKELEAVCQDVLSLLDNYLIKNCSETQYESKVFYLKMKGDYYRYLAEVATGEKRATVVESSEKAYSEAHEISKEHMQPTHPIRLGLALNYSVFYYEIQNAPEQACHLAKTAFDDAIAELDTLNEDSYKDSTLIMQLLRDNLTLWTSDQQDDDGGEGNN

For `CN(C)CCSSCCN(C)C(=O)c1ccc(C=O)c(F)c1` [compound 5], the “consumption of apo-14-3-3γ into crosslinked ternary complex” value is reported as “near quantitative consumption of apo-14-3-3γ”. The “crosslinking of 14-3-3/ERRγ in isolation” value (only ERRγ phosphopeptide 10 μM, 5 50 μM) was around 70%.

For `CN(C)CCSSCCN(C)C(=O)c1cc(Br)cc(C=O)c1` [compound 10], the “consumption of apo-14-3-3γ into crosslinked ternary complex” value is given as “complete consumption of apo-14-3-3γ was not observed”.
